The values that follow come from ChEMBL document CHEMBL1201862, “PubChem BioAssay data set” (2004).

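Exposure lasted 48 hours, with cells grown in 96-well plates and compounds tested at five concentrations. GI50 = concentration required for 50% inhibition of growth.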 Active and inactive are the calls of the source. Rule as the data show it: active = GI50 up to about 1.1 µM and inactive = higher. Some results are limits rather than exact numbers.

Assay in all cases: NCI anticancer screen, dose series, 48 h
Assay [1] deals with A549.
Assay [2] has as its system ACHN.
Assay [3] deals with CAKI-1.
The subject of assay [4] is CCRF-CEM.
Assay [5] concerns EKVX.
For assay [6], the system named is Hs-578T.
For assay [7], the system named is K562.
For assay [8], the system named is KM12.
Assay [9] relates to MCF7.
Assay [10] deals with MDA-N.
Assay [11] relates to NCI-H23.
For assay [12], the system named is PC-3.
The test system of assay [13] is SK-MEL-2.
Assay [14] has as its system SK-MEL-5.
Assay [15] relates to SN12C.
In assay [16] the test system is SNB-75.
Assay [17] has as its system T47D.
Assay [18] relates to TK-10.
Assay [19] relates to UACC-257.
Assay [20] has as its system UACC-62.

For the compound `O=C1c2cc([N+](=O)[O-])ccc2-c2ccc3c4ccc5c6c(ccc(c7ccc1c2c73)c64)C(=O)c1cc([N+](=O)[O-])ccc1-5`, the GI50 in assay [1], in [2], in [3], in [4], in assay [5] and in assay [6] was > 100 µM (inactive) each time. Also, the GI50 in assay [7], in [8], in [9], in [10], in [11] and in assay [12] was > 100 µM (inactive) each time. Also, the GI50 in assay [13], in assay [14], in assay [15], in assay [16], in assay [17] and in [18] was > 100 µM (inactive) each time. Further, the GI50 in assay [19] and in assay [20] was > 100 µM (inactive) throughout.

In the case of `O=C1C(CN2CCOCC2)CCCC1CN1CCOCC1` (stereo not given), the GI50 was 24.1 µM (inactive) in assay [1]; 1.88 µM (inactive) in [2]; 0.394 µM (active) in assay [3]; 0.76 µM (active) in assay [4]; 4.23 µM (inactive) in assay [5]; 23 µM (inactive) in assay [6]. Moreover, the GI50 was 0.48 µM (active) in [7]; 5.98 µM (inactive) in assay [8]; 0.303 µM (active) in [9]; 4.37 µM (inactive) in [10]; 6 µM (inactive) in assay [11]; 15.6 µM (inactive) in assay [12]. For the same compound, the GI50 in assay [13] was 8.36 µM (inactive); in [14], 11.1 µM (inactive); in assay [15] it was 4.01 µM (inactive); in assay [16] it was 14 µM (inactive); in [17] it was 1.13 µM (inactive); in assay [18], 3.94 µM (inactive). Besides, the GI50 in assay [19] was 2.09 µM (inactive); in [20], 7.85 µM (inactive).

Turning to `O=S(=O)(/C=C/C=C/[S+]([O-])c1ccccc1)c1ccccc1` (stereo not given), the GI50 is > 10 µM (inactive) in assay [1]; 2.34 µM (inactive) in assay [2]; 1.84 µM (inactive) in assay [3]; 0.333 µM (active) in assay [4]; > 10 µM (inactive) in [5]; 3.51 µM (inactive) in assay [6]. Moreover, the GI50 in assay [7] was 0.902 µM (active); in assay [8], > 2.63 µM (inactive); in assay [9], 0.887 µM (active); in [10] it was 2.95 µM (inactive); in assay [11], 1.96 µM (inactive); in assay [12], > 6.92 µM (inactive). The GI50 was 2.01 µM (inactive) in assay [13]; 1.03 µM (active) in [14]; 2 µM (inactive) in assay [15]; 4.66 µM (inactive) in assay [16]; 2.02 µM (inactive) in assay [17]; 2.09 µM (inactive) in assay [18]. Also, the GI50 was 1.67 µM (inactive) in assay [19] and 1.44 µM (inactive) in [20].

For `CCCCOC(=O)C1CN2C(=NC1(C(F)(F)F)C(F)(F)F)Sc1ccccc12` (stereo not given), the GI50 was 40.5 µM (inactive) in assay [1]; 30.3 µM (inactive) in [2]; > 100 µM (inactive) in assay [3]; 30.2 µM (inactive) in assay [4]; 37.2 µM (inactive) in assay [5]; 30.6 µM (inactive) in assay [6]. Moreover, the GI50 in assay [7] was 12.2 µM (inactive); in assay [8], 27.2 µM (inactive); in [9], 32.1 µM (inactive); in assay [10] it was 60.3 µM (inactive); in assay [11] it was 24.5 µM (inactive); in assay [12], 16.2 µM (inactive). Also, the GI50 in assay [13] is 34.8 µM (inactive); in assay [14], 20 µM (inactive); in assay [15], 98.4 µM (inactive); in assay [16] it was 35.1 µM (inactive); in assay [17], 16.8 µM (inactive); in assay [18] it was 30.6 µM (inactive). Besides, the GI50 is 36.1 µM (inactive) in assay [19] and 47.1 µM (inactive) in [20].

For the compound `COc1ccc(/C=C(/c2ccccc2)c2c(C)cc(C)c(/C(=C\c3ccc(OC)cc3)c3ccccc3)c2/N=N/c2cc(C)cc(C)c2)cc1`, the GI50 in assay [1] was 14.6 µM (inactive); in assay [2], > 56.5 µM (inactive); in assay [3], > 88.1 µM (inactive); in assay [4] it was 8.49 µM (inactive); in assay [5], 30 µM (inactive); in assay [6], 22.5 µM (inactive). Further, the GI50 is 11.7 µM (inactive) in [7]; 9.64 µM (inactive) in assay [8]; 9.91 µM (inactive) in assay [9]; 24 µM (inactive) in assay [10]; 14.4 µM (inactive) in [11]; 9.89 µM (inactive) in [12]. The GI50 is 7.74 µM (inactive) in [13]; 17.6 µM (inactive) in assay [14]; 8.47 µM (inactive) in assay [15]; 6.92 µM (inactive) in assay [16]; 4.9 µM (inactive) in assay [17]; 21.9 µM (inactive) in [18]. Besides, the figures for the GI50 in assay [19] and in assay [20] were 7.69 µM (inactive) and 45.6 µM (inactive), respectively.

As to `COc1ccc(/C=C2\CCC(CNc3cc(C)on3)C2=O)cc1` (stereo not given), the GI50 in [1] was > 88.7 µM (inactive); in assay [2] it was > 100 µM (inactive); in [3], > 100 µM (inactive); in assay [4], > 100 µM (inactive); in assay [5], > 100 µM (inactive); in [6], 57.9 µM (inactive). The GI50 in assay [7] is > 100 µM (inactive); in assay [8] it was > 100 µM (inactive); in assay [9], > 100 µM (inactive); in assay [10] it was > 100 µM (inactive); in assay [11], > 78.2 µM (inactive); in [12], > 100 µM (inactive). In addition, the GI50 in assay [13] is > 79.3 µM (inactive); in assay [14], > 100 µM (inactive); in assay [15], > 100 µM (inactive); in assay [16] it was 29.4 µM (inactive); in [17], 33 µM (inactive); in [18], > 84.9 µM (inactive). Further, the GI50 in assay [19] was > 94.6 µM (inactive); in [20], > 100 µM (inactive).

For `NC(=O)c1cc2ccccc2o/c1=N/O`, the GI50 in assay [1] is 78.5 µM (inactive); in assay [2], > 100 µM (inactive); in assay [3], 27.9 µM (inactive); in [4], > 100 µM (inactive); in assay [5] it was 32.2 µM (inactive); in assay [6], 26.2 µM (inactive). Besides, the GI50 in [7] is > 100 µM (inactive); in assay [8], > 100 µM (inactive); in assay [9], 29.2 µM (inactive); in [10] it was > 100 µM (inactive); in [11], > 100 µM (inactive); in [12] it was > 100 µM (inactive). Also, the GI50 in assay [13], in [14], in [15], in assay [16], in assay [17] and in [18] was > 100 µM (inactive) in each case. Moreover, the figures for the GI50 in [19] and in assay [20] were > 100 µM (inactive) and 35.8 µM (inactive), respectively.

`Nc1ccccc1.O=C(O)C(C(F)(F)F)C(F)(F)F`: the GI50 was > 100 µM (inactive) in assay [1]; > 100 µM (inactive) in assay [2]; 34 µM (inactive) in [3]; > 100 µM (inactive) in assay [4]; > 100 µM (inactive) in [5]; > 100 µM (inactive) in assay [6]. In addition, the GI50 was > 100 µM (inactive) in assay [7]; 71.8 µM (inactive) in [8]; > 100 µM (inactive) in assay [9]; > 100 µM (inactive) in assay [10]; > 100 µM (inactive) in assay [11]; > 100 µM (inactive) in assay [12]. In addition, the GI50 in assay [13], in [14], in [15], in [16], in [17] and in [18] was > 100 µM (inactive) in each case. In addition, the figures for the GI50 in [19] and in assay [20] were > 100 µM (inactive) and 68.5 µM (inactive), respectively.

`CC(=O)OC1CC[C@@]2(C)C(CC[C@]3(C)C2CC=C2[C@@H]4C(C)[C@H](C)CCC4(C)CCC23C)[C@@]1(C)C(=O)O` (stereo not given in full): the GI50 in [1] was 17.5 µM (inactive); in assay [2], 18.2 µM (inactive); in assay [3] it was 18.2 µM (inactive); in [4] it was 24.9 µM (inactive); in assay [5] it was 18 µM (inactive); in assay [6], 25.7 µM (inactive). Also, the GI50 was 25.9 µM (inactive) in assay [7]; 21.2 µM (inactive) in assay [8]; 16 µM (inactive) in assay [9]; 20.9 µM (inactive) in assay [10]; 22.5 µM (inactive) in [11]; 15.4 µM (inactive) in [12]. Also, the GI50 in assay [13] is 21.3 µM (inactive); in assay [14] it was 17.4 µM (inactive); in [15], 21.5 µM (inactive); in [16], 19.2 µM (inactive); in assay [17], 17.9 µM (inactive); in assay [18], 18.6 µM (inactive). In addition, the values for the GI50 in assay [19] and in assay [20] were 21 µM (inactive) and 17 µM (inactive), respectively.

Regarding `COc1cc2cc(C(=O)N3CC(CCl)c4c3cc([N+](=O)[O-])c3ccccc43)[nH]c2c(OC)c1OC` (stereo not given), the GI50 in assay [1] was 1.8 µM (inactive); in assay [2], 11.2 µM (inactive); in assay [3], 39.4 µM (inactive); in assay [4], 11.6 µM (inactive); in assay [5], 16.7 µM (inactive); in [6] it was > 45.1 µM (inactive). The GI50 in assay [7] was 15.3 µM (inactive); in [8], > 62.8 µM (inactive); in assay [9] it was 17.3 µM (inactive); in assay [10] it was > 100 µM (inactive); in assay [11], 27.2 µM (inactive); in assay [12], 10.9 µM (inactive). The GI50 is > 100 µM (inactive) in assay [13]; 29.6 µM (inactive) in [14]; 79.6 µM (inactive) in [15]; 31.8 µM (inactive) in assay [16]; > 66.8 µM (inactive) in assay [17]; > 100 µM (inactive) in [18]. In addition, the GI50 in assay [19] was > 100 µM (inactive); in [20] it was 15.9 µM (inactive).
